“And” between values parts separate entries of the source, which are not always exact repeats. Identical values can stand only once.
Biological target: guinea pig β2AR (Cavia porcellus, UniProt Q8K4Z4)
Test: 125I-CYP radioligand competition binding, guinea pig β2AR

Sequence of guinea pig β2AR (Q8K4Z4 whole entry): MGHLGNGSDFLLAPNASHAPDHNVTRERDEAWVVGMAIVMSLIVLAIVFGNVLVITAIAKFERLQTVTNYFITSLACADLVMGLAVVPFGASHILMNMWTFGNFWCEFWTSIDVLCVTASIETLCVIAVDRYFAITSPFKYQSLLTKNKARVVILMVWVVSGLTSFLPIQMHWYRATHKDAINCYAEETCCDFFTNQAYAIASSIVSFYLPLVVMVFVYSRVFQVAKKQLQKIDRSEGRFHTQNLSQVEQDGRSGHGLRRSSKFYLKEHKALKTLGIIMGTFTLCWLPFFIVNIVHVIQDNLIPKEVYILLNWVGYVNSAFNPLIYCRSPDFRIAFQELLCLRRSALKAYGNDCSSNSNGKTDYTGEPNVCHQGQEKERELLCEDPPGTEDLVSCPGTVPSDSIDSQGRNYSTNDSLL

## COc1ccc(Sc2ccc(S(=O)(=O)N(C)C(C)C)cc2C(=O)N[C@H](CC(N)=O)Cc2ccc(C(C)(C)C)cc2)cc1 [Cmpd-6]
Cmpd-6 [5 uM], Log [ISO] (M) -7.50515
  125I-CYP binding, ISO competition curve (Figure 4B): 44.1147 and 80.7404 and 64.2013 and 72.7308 and 72.5102
Cmpd-6 [5 uM], Log [ISO] (M) -8.70927
  125I-CYP binding, ISO competition curve (Figure 4B): 91.2908 and 98.8095 and 98.5241 and 100.522 and 98.3672
Cmpd-6 [5 uM], Log [ISO] (M) -9.31133
  125I-CYP binding, ISO competition curve (Figure 4B): 97.2169 and 98.4924 and 100.303 and 100.814 and 103.36
Cmpd-6 [5 uM], Log [ISO] (M) -9.91339
  125I-CYP binding, ISO competition curve (Figure 4B): 98.5199 and 97.6422 and 100.698 and 101.104 and 99.2184
Cmpd-6 [5 uM], Log [ISO] (M) -11 (DMSO)
  125I-CYP binding, ISO competition curve (Figure 4B): 103.509 and 97.6444 and 99.5117 and 98.3736 and 96.5817
Cmpd-6 [25 uM], Log [Alb] (M) -4.49485
  125I-CYP binding, Alb competition curve (Figure 4E): 2.733 and 2.385 and 4.038 and 2.554
Cmpd-6 [25 uM], Log [Alb] (M) -5.09691
  125I-CYP binding, Alb competition curve (Figure 4E): 4.618 and 4.73 and 8.896 and 4.926
Cmpd-6 [25 uM], Log [Alb] (M) -6.30103
  125I-CYP binding, Alb competition curve (Figure 4E): 28.5337 and 34.114 and 50.4761 and 33.3615
Cmpd-6 [25 uM], Log [Alb] (M) -6.90309
  125I-CYP binding, Alb competition curve (Figure 4E): 59.5755 and 62.9432 and 76.3108 and 62.8869
Cmpd-6 [25 uM], Log [Alb] (M) -7.50515
  125I-CYP binding, Alb competition curve (Figure 4E): 81.8149 and 87.2785 and 93.3109 and 87.5413
Cmpd-6 [25 uM], Log [Alb] (M) -8.10721
  125I-CYP binding, Alb competition curve (Figure 4E): 96.1096 and 95.2866 and 96.5894 and 97.0774
Cmpd-6 [25 uM], Log [Alb] (M) -8.70927
  125I-CYP binding, Alb competition curve (Figure 4E): 98.1238 and 100.926 and 100.115 and 99.527
Cmpd-6 [25 uM], Log [Alb] (M) -9.31133
  125I-CYP binding, Alb competition curve (Figure 4E): 102.128 and 99.4951 and 103.592 and 101.926
Cmpd-6 [25 uM], Log [Alb] (M) -9.91339
  125I-CYP binding, Alb competition curve (Figure 4E): 98.9354 and 102.792 and 101.444 and 100.327
Cmpd-6 [25 uM], Log [Alb] (M) -11 (DMSO)
  125I-CYP binding, Alb competition curve (Figure 4E): 100.906 and 97.7704 and 98.4446 and 97.5175
Cmpd-6 [25 uM], Log [FEN] (M) -4.49485
  125I-CYP binding, FEN competition curve (Figure 4D): 1.409 and 1.866 and 2.061 and 1.201
Cmpd-6 [25 uM], Log [FEN] (M) -6.90309
  125I-CYP binding, FEN competition curve (Figure 4D): 30.825 and 36.7624 and 55.798 and 36.3648
Cmpd-6 [25 uM], Log [FEN] (M) -7.50515
  125I-CYP binding, FEN competition curve (Figure 4D): 56.6182 and 66.5595 and 80.6389 and 63.8444
Cmpd-6 [25 uM], Log [FEN] (M) -8.10721
  125I-CYP binding, FEN competition curve (Figure 4D): 85.2358 and 86.7408 and 95.8272 and 89.5788
Cmpd-6 [25 uM], Log [FEN] (M) -8.70927
  125I-CYP binding, FEN competition curve (Figure 4D): 93.1548 and 97.3369 and 100.273 and 95.4081
Cmpd-6 [25 uM], Log [FEN] (M) -9.31133
  125I-CYP binding, FEN competition curve (Figure 4D): 99.631 and 100.281 and 99.1957 and 101.634
Cmpd-6 [25 uM], Log [FEN] (M) -9.91339
  125I-CYP binding, FEN competition curve (Figure 4D): 99.9681 and 102.324 and 101.127 and 101.353
Cmpd-6 [25 uM], Log [FEN] (M) -11 (DMSO)
  125I-CYP binding, FEN competition curve (Figure 4D): 101.956 and 98.6366 and 99.5621 and 98.3857
Cmpd-6 [25 uM], Log [ISO] (M) -5.09691
  125I-CYP binding, ISO competition curve (Figure 4B): 1.411 and 1.274 and 2.38 and 2.249 and 1.1946
Cmpd-6 [25 uM], Log [ISO] (M) -6.90309
  125I-CYP binding, ISO competition curve (Figure 4B): 12.3266 and 14.2939 and 23.2433 and 22.4081 and 20.0289
Cmpd-6 [25 uM], Log [ISO] (M) -7.50515
  125I-CYP binding, ISO competition curve (Figure 4B): 28.0286 and 51.334 and 48.5832 and 48.3069 and 46.746
Cmpd-6 [25 uM], Log [ISO] (M) -8.70927
  125I-CYP binding, ISO competition curve (Figure 4B): 84.2583 and 93.8004 and 93.7052 and 91.4625 and 91.5747
Cmpd-6 [25 uM], Log [ISO] (M) -9.31133
  125I-CYP binding, ISO competition curve (Figure 4B): 94.8589 and 99.2775 and 101.069 and 99.6071 and 99.1245
Cmpd-6 [25 uM], Log [ISO] (M) -9.91339
  125I-CYP binding, ISO competition curve (Figure 4B): 97.1607 and 99.3939 and 99.6796 and 99.8936 and 100.155
Cmpd-6 [25 uM], Log [ISO] (M) -11 (DMSO)
  125I-CYP binding, ISO competition curve (Figure 4B): 103.398 and 98.8874 and 98.4421 and 101.926 and 100.783
Cmpd-6 [25 uM], Log [Salm] (M) -5.09691
  125I-CYP binding, Salm competition curve (Figure 4F): 4.291 and 4.483 and 7.953 and 4.185
Cmpd-6 [25 uM], Log [Salm] (M) -5.69897
  125I-CYP binding, Salm competition curve (Figure 4F): 11.1208 and 11.4804 and 19.9536 and 11.286
Cmpd-6 [25 uM], Log [Salm] (M) -6.30103
  125I-CYP binding, Salm competition curve (Figure 4F): 31.3057 and 32.3004 and 47.2072 and 32.0545
Cmpd-6 [25 uM], Log [Salm] (M) -6.90309
  125I-CYP binding, Salm competition curve (Figure 4F): 67.1995 and 66.2422 and 79.0931 and 66.807
Cmpd-6 [25 uM], Log [Salm] (M) -7.50515
  125I-CYP binding, Salm competition curve (Figure 4F): 88.5873 and 88.904 and 95.0429 and 88.3948
Cmpd-6 [25 uM], Log [Salm] (M) -8.10721
  125I-CYP binding, Salm competition curve (Figure 4F): 97.9774 and 97.2972 and 97.374 and 97.0377
Cmpd-6 [25 uM], Log [Salm] (M) -8.70927
  125I-CYP binding, Salm competition curve (Figure 4F): 99.3713 and 100.399 and 100.671 and 100.779
Cmpd-6 [25 uM], Log [Salm] (M) -9.31133
  125I-CYP binding, Salm competition curve (Figure 4F): 100.672 and 102.486 and 99.6753 and 100.402
Cmpd-6 [25 uM], Log [Salm] (M) -9.91339
  125I-CYP binding, Salm competition curve (Figure 4F): 96.4457 and 99.6997 and 100.705 and 99.5228
Cmpd-6 [25 uM], Log [Salm] (M) -11 (DMSO)
  125I-CYP binding, Salm competition curve (Figure 4F): 100.872 and 95.2897 and 98.0192 and 98.0519

From PMC10503797, “Allosteric modulator potentiates β2AR agonist–promoted bronchoprotection in asthma models” (The Journal of Clinical Investigation, 2023)
